Columns and labels:
[1] = DRUGMATRIX: GABAA, Muscimol, Central radioligand binding (ligand: [3H] Muscimol); assay type: cell membranes, Rattus norvegicus, Wistar, Brain, Membrane; settings: Not Active = under 50% inhibition at 10 µM
[2] = molecular target: T1, Substance-K receptor (Homo sapiens, UniProt P21452); assay type: cell membranes, CHO, Membrane; settings: cho; also: in other assays of this panel Not Active means under 50% inhibition at 10 µM
T1 sequence (P21452 whole entry): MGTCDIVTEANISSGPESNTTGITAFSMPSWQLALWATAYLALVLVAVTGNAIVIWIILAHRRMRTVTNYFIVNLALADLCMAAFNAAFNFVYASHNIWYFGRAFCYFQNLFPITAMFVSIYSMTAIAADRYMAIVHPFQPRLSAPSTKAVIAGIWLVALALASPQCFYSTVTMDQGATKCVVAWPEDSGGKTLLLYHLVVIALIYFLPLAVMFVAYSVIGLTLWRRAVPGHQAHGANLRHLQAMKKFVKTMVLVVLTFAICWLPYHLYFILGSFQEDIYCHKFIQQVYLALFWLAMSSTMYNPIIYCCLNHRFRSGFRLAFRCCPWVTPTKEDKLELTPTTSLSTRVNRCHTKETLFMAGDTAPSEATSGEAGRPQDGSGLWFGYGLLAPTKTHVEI

[3] = molecular target: cGMP-specific 3',5'-cyclic phosphodiesterase (Homo sapiens, UniProt O76074); assay: DRUGMATRIX: Phosphodiesterase PDE5 enzyme inhibition (substrate: [3H]cGMP + cGMP); assay type: tissue-based, Platelet; settings: platelet; Not Active = under 50% inhibition at 10 µM
[4] = molecular target: Cytochrome P450 2E1 (Homo sapiens, UniProt P05181); settings: bti-tn-5b1-4; also: in other assays of this panel Not Active means under 50% inhibition at 10 µM
[5] = DRUGMATRIX: Tumor Necrosis Factor (TNF), Non-Selective radioligand binding (ligand: [125I] TNF-alpha); assay type: cell membranes, Membrane; settings: u-937; Not Active = under 50% inhibition at 10 µM
[6] = molecular target: T2, Neuropeptide Y receptor type 1 (Homo sapiens, UniProt P25929); assay type: cell membranes, Membrane; settings: sk-n-mc; also: in other assays of this panel Not Active means under 50% inhibition at 10 µM
T2 sequence (P25929 whole entry): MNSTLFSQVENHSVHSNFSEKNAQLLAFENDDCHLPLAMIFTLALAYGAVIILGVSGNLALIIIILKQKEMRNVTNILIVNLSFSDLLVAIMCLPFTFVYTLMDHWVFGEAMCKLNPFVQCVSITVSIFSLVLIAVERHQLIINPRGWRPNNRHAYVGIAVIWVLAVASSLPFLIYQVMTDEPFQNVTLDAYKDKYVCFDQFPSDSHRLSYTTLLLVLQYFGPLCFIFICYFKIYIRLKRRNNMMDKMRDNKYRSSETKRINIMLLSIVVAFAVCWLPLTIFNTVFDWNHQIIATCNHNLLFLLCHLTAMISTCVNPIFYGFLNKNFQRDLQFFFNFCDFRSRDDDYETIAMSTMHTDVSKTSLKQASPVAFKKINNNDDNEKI

[7] = molecular target: T3, Receptor-type tyrosine-protein phosphatase C (Homo sapiens, UniProt P08575); parameters: species or system Escherichia coli;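 also: inhibition of CD45 enzyme activity measured using DiFMUP as substrate; in other assays of this panel Not Active means under 50% inhibition at 10 µM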
T3 sequence (P08575 whole entry): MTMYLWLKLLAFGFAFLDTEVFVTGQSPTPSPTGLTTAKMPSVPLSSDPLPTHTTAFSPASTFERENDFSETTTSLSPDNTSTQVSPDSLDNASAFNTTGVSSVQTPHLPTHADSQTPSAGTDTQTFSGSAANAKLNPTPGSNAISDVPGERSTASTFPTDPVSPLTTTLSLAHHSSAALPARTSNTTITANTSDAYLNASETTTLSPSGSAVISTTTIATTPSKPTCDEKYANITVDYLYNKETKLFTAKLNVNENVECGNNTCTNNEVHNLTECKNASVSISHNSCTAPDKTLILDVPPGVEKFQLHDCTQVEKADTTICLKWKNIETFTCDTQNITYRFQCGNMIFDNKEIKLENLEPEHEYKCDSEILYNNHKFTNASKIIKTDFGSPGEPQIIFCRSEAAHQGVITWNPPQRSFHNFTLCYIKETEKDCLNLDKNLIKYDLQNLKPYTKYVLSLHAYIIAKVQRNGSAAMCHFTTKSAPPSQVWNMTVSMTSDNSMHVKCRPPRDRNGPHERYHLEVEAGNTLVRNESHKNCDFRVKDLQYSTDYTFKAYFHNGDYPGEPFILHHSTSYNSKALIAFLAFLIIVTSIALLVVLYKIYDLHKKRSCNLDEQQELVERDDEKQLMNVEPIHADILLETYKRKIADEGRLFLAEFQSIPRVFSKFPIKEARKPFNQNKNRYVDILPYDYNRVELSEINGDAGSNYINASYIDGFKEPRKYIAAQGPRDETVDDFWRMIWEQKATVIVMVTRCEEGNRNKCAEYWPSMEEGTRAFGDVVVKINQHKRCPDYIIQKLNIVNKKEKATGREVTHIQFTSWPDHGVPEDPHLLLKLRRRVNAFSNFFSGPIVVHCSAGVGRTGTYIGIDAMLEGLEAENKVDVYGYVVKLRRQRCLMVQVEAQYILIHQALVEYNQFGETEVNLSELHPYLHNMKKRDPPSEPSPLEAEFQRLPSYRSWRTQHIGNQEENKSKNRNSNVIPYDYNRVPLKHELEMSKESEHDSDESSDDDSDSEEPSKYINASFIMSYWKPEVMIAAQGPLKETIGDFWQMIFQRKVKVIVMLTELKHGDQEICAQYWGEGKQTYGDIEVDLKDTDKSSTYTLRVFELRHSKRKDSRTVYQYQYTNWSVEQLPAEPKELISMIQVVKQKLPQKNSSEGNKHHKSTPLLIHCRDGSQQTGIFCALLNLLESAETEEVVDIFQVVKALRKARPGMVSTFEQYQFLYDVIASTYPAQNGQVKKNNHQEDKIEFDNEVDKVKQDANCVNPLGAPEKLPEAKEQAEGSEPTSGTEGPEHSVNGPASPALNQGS

[8] = molecular target: T4, Caspase-1 (Homo sapiens, UniProt P29466); parameters: species or system Escherichia coli
T4 sequence (P29466 whole entry): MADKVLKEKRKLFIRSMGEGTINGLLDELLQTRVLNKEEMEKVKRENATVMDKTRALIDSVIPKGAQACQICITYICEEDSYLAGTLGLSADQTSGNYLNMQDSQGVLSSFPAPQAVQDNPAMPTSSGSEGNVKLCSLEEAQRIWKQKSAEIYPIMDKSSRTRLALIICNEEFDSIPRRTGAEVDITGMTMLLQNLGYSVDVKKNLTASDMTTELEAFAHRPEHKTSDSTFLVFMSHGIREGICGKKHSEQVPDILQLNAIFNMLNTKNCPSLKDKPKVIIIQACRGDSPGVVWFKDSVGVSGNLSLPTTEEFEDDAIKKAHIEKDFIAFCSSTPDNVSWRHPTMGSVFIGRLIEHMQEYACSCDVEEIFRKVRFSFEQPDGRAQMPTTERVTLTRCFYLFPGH

Chain of Cytochrome P450 2E1 (P05181 whole entry): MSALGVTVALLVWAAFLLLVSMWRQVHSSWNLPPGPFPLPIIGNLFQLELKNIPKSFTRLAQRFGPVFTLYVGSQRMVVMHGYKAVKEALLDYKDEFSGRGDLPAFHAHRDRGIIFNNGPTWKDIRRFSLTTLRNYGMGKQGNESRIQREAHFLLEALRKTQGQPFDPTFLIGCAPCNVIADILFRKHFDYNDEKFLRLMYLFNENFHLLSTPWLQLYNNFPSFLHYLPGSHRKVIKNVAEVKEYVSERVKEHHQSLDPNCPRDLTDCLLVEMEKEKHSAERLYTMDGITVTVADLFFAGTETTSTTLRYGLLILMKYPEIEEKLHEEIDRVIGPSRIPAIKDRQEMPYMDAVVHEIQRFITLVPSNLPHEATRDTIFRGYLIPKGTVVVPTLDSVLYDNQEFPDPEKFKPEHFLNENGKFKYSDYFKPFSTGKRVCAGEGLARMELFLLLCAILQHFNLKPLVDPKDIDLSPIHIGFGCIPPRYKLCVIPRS

COc1cc(C(=O)NC2CCCNC2)cc(OC)c1OC (stereo not given) [TROXIPIDE]
Not Active: IC50 [1] | Ki [1] | IC50 [2] | IC50 [3] | IC50 [4] | Ki [4] | IC50 [5] | Ki [5] | IC50 [6] | IC50 [7] | IC50 [8]

CC(C)[C@H](N)C(=O)OCCOCn1cnc2c(=O)nc(N)[nH]c21 [VALACYCLOVIR]
Not Active: IC50 [1] | Ki [1] | IC50 [2] | IC50 [3] | IC50 [4] | Ki [4] | IC50 [5] | Ki [5] | IC50 [6] | IC50 [7] | IC50 [8]

CN[C@H](CC(C)C)C(=O)N[C@H]1C(=O)N[C@@H](CC(N)=O)C(=O)N[C@H]2C(=O)N[C@H]3C(=O)N[C@H](C(=O)N[C@H](C(=O)O)c4cc(O)cc(O)c4-c4cc3ccc4O)[C@H](O)c3ccc(c(Cl)c3)Oc3cc2cc(c3O[C@@H]2O[C@H](CO)[C@@H](O)[C@H](O)[C@H]2O[C@H]2C[C@](C)(N)[C@H](O)[C@H](C)O2)Oc2ccc(cc2Cl)[C@H]1O [VANCOMYCIN]
Not Active: IC50 [1] | Ki [1] | IC50 [2] | IC50 [3] | IC50 [4] | Ki [4] | IC50 [5] | Ki [5] | IC50 [6] | IC50 [7] | IC50 [8]

COc1ccc(C(CN(C)C)C2(O)CCCCC2)cc1 (stereo not given) [VENLAFAXINE]
Not Active: IC50 [1] | Ki [1] | IC50 [2] | IC50 [3] | IC50 [4] | Ki [4] | IC50 [5] | Ki [5] | IC50 [6] | IC50 [7] | IC50 [8]

IVERMECTIN
Not Active: IC50 [1] | Ki [1] | IC50 [2] | Ki [2] | IC50 [3] | Ki [3] | IC50 [4] | Ki [4] | IC50 [5] | Ki [5] | IC50 [6] | Ki [6] | IC50 [7] | Ki [7] | IC50 [8] | Ki [8]
